# “Also recorded” adds a separate entry of the source.
# Experiments:
# [1] = test system: CD34^+ cells; test: Whole genome expression arrays (Affymetrix GeneChip); assay type: cell-based, human
# Procedure: Human umbilical cord blood and pre-isolated CD34^+ cells from human umbilical cord blood were purchased from Stem Cell Technologies Inc. (Vancouver, BC, Canada). Cells were incubated in either low molecular weight dextran with 5% human serum albumin media (LMD/5% HSA) or Stem Span media (Stem Cells Technology Inc.) for ex vivo treatment with 16,16-dimethyl PGE2. Total RNA was isolated from incubated cells using a Pico Pure RNA Isolation Kit (Molecular Devices, Sunnyvale, Calif.).
# Biotinylated amplified RNA (aRNA) was prepared using the standard protocol for MessageAmp II aRNA Amplification Kit (Applied Biosystems/Ambion, Austin, Tex.) and the optional Second Round Amplification; the copy RNA (cRNA) was transcribed into biotin labeled aRNA using MessageAmp II Biotin Enhanced Kit (Applied Biosystems/Ambion, Austin, Tex.) according to the manufacturer's instructions. Biotin labeled aRNA was purified and fragmented according to the Applied Biosystems protocols. 20 μg of fragmented aRNA was hybridized to Human Genome U133 Plus 2.0 GeneChips (Affymetrix Inc., Santa Clara, Calif.) for 16 hrs at 45° C.
# The GeneChips were washed and stained in the Affymetrix Fluidics Station 450 and scanned using the Affymetrix GeneChip Scanner 3000 7G. The image data were analyzed using Affymetrix Expression Console software and default analysis settings. GeneChip expression data were normalized by log scale robust multi-array analysis (RMA) and visualized in Spotfire for Genomics 3.1 (Tibco Spotfire, Palo Alto, Calif.). Pathway analysis was performed in MetaCore. (GeneGo, St. Joseph, Mich.).
# GeneChip technology was used to determine the effects of time (incubation for 5, 15, 20, 30, 40, 60, 80, 100, 120, 180, or 240 minutes), temperature (incubation at 4° C., 25° C., or 37° C.), and final 16,16-dimethyl PGE2 concentration (0.1 μm, 1 μM, 10 μM, 50 μM, or 100 μM) on cellular gene expression.
# Gene expression profiles were analyzed for CD34^+ cells incubated with 10 μM 16,16-dimethyl PGE2 at 37° C. for 5, 15, 30, 60, or 120 minutes. For incubation (e.g., treatment) periods less than 120 minutes, the cells were washed in media to remove the 16,16-dimethyl PGE2 and then the cells were incubated for the remaining period in media to allow time for changes in gene expression to take place (See FIG. 5).
# [2] = test system: Human umbilical cord blood cells; Lin(−)CD34^+ cells isolated after treatment; test: Gene expression arrays after treatment of whole cord blood; assay type: cell-based
# Procedure: Further experiments were performed to determine if CD34^+ cells responded to 16,16-dimethyl PGE2 when cells were treated in the context of a whole cord blood clinical treatment protocol. Human umbilical cord blood cells were incubated for 120 minutes at 37° C. with vehicle or 10 μM 16,16-dimethyl PGE2 (See FIGS. 17A-17D). After the incubation, Lin(−) CD34^+ cells were isolated using Miltenyi magnetic sorting. Biotin-labeled aRNA was prepared from the cells, and gene expression profiles were analyzed. […]
# These experiments were repeated using human whole cord blood cells to determine if the CD34^+ expression results can be translated to the clinical setting. […] After the incubation, Lin(−)CD34^+ cells were isolated, labeled aRNA was prepared from the cells, and gene expression profiles were analyzed. […]
# After treatment, the cells were washed with LMD/5% HSA medium, centrifuged for 10 minutes at 650× g at room temperature and resuspended in a cold selection buffer (phosphate buffered saline (PBS) with no Ca^+ or Mg^+; 2 mM EDTA; and 0.5% HSA). […] Once the Lin-CD34^+ cells were isolated from the treated whole cord blood, an aliquot was analyzed by flow cytometry to assess purity. […]
structure (smiles),measurement,setting,value
"CCCCC(C)(C)[C@H](O)/C=C/[C@H]1[C@H](O)CC(=O)[C@@H]1C/C=C\CCCC(=O)O [16,16-dimethyl PGE2]",signature gene expression changes after very short incubation,"[1]; 10 μM, 37° C., 5-15 minutes, assessed after 120 minutes total",minimal gene expression changes
same,incubation time after which gene expression changes were apparent,"[1]; 10 μM, 37° C., assessed after 120 minutes total",30 min
same,genes downregulated,"[1]; 10 μM, 120 minutes, 37° C.",243 genes
same,"genes modulated at a statistically significant level, total","[1]; 10 μM, 120 minutes, 37° C.",608 genes
same,genes upregulated,"[1]; 10 μM, 120 minutes, 37° C.",365 genes
same,fold increase in CXCR4 expression,"[1]; 10 μM, 120 minutes, 37° C., relative to DMSO/vehicle treated control",18 fold
same,fold increase in CREM expression (FIG. 4),"[1]; 10 μM, vs vehicle treated CD34+ cells",8 fold
same,Fold change (increases) AREG,"[1]; Amphiregulin, CD34+ cells, 10 μM, 120 minutes, 37° C. vs DMSO",23.32 fold
same,gene expression changes at 100 μM at 4° C. and 25° C. compared with 10 μM at 37° C.,[1]; CD34+ cells,smaller gene expression changes
same,gene expression associated with apoptosis or cell death,[1]; CD34+ cells incubated at 37° C.,no increase in gene expression associated with apoptosis or cell death; also recorded: no increase in gene expression of apopotosis or cell death associated genes
same,concentration at which the full gene expression signature was reproduced,"[1]; CD34+ cells, 120 minutes, 37° C., no further substantial changes above",10 µM
same,Fold change (increases) CXCR4,"[1]; CXC chemokine Receptor 4, CD34+ cells, 10 μM, 120 minutes, 37° C. vs DMSO",7.33 fold
same,Fold change (increases) DUSP4,"[1]; Dual specificity protein phosphatase 4, CD34+ cells, 10 μM, 120 minutes, 37° C. vs DMSO",25.75 fold
same,Fold change (increases) FOSL2,"[1]; Fos-related antigen 2, CD34+ cells, 10 μM, 120 minutes, 37° C. vs DMSO",8.11 fold
same,Fold change (increases) GEM,"[1]; GTP-binding protein GEM, CD34+ cells, 10 μM, 120 minutes, 37° C. vs DMSO",28.18 fold
same,Fold change (increases) HAS1,"[1]; Hyaluronan synthase 1, CD34+ cells, 10 μM, 120 minutes, 37° C. vs DMSO",55.83 fold
same,Fold change (increases) NR4A2,"[1]; Nuclear receptor related 1 protein, CD34+ cells, 10 μM, 120 minutes, 37° C. vs DMSO",22.30 fold
same,Fold change (increases) REN,"[1]; Renin, CD34+ cells, 10 μM, 120 minutes, 37° C. vs DMSO",19.50 fold
same,CXCR4 RNA expression,"[1]; WCB or CD34+ cells, 10 μM, 2 hours, 37° C. vs DMSO or 10 μM 1 hour 4° C.",increase in CXCR4 RNA expression
same,Fold change (increases) CREM,"[1]; cAMP-responsive element modulator, CD34+ cells, 10 μM, 120 minutes, 37° C. vs DMSO",12.90 fold
same,Fold change (increases) COL1A1,"[1]; collagen, type I, alpha 1, CD34+ cells, 10 μM, 120 minutes, 37° C. vs DMSO",10.50 fold
same,response of whole cord blood (more than 99% Lineage+ cells),"[2]; 10 μM, 37° C., 2 hours, FIGS. 17A-17D","did not respond to 16,16-dimethyl PGE2 in a similar manner"
same,concentration giving the maximal gene expression signature,"[2]; whole cord blood treated 120 minutes at 37° C., Lin(−)CD34+ cells isolated",10 µM

# — patent US20200339953A1, “HEMATOPOIETIC STEM AND PROGENITOR CELL THERAPY” (priority 2010, published 2020)
